# Measurements taken from patent US8227419B2, “Method of treating conditions associated with airway tissue remodeling” (CRC For Asthma and Airways Ltd., priority 2006, dated 2012).
# “Also recorded” adds a separate entry of the source. Where a SMILES comes first, the peptide text is derived from it.
# What was measured:
# [1] = test system: primary lung endothelial cells; test: MTT proliferation assay, primary lung endothelial cells; format: cell-based, human; details: peptide 4.5 μM; day 3, 7 and 9; n=5 cell lines
# Protocol: Human pulmonary endothelial cells were isolated from bronchial tissue obtained during lung transplantation. Blood vessels were dissected free from surrounding tissue and cut longitudinally and then cut into approximately 5 mm segments. Blood vessel segments were then placed in a 15 ml falcon tube containing 10 ml of digestive buffer, (1 mg (250 U)/ml type 2 collagenase, 1 U/ml dispase, 10 mg/ml BSA) the tube was placed in the incubator for 10 minutes and agitated every 2 minutes. Digestive mixture was changed every 10 minutes for a total of 50 minutes. 1/10 volume of FBS was added to the supernantants that were removed every 10 minutes. Supernatants were then centrifuged at 200 g for 5 minutes. Supernantants were removed and cells were washed with culture medium, this contained 10% FBS, 10 μg/ml endothelial cell growth supplement, 20 U/ml heparin and 2% antibiotics, and centrifuged at 200 g for 5 minutes. Supernantants were removed and cells were placed in 75 cm^2 vented tissue culture flasks (Falcon Labware) containing 10 ml of culture medium, and incubated for 1 hour at 37° C. […] Proliferation was assessed using an MTT assay (SIGMA-aldrich, Missouri, USA) at day 3, 7 and 9. […] The specific absorption of each well was measured at 690 nm (reference) and 570 nm.
# [2] = test system: asthmatic smooth muscle cells; test: MTT proliferation assay, asthmatic airway smooth muscle cells; format: cell-based, human; details: peptide 4.5 μM; all timepoints of FIG. 11; n=4 ASM cell lines
# From the text: Human airway smooth muscle cells were isolated by microdissection from bronchial tissue obtained from either bronchoscopy, lung tissue obtained from lung transplants, or lung tissue resected at thoracotomy. Ethical approval for the use of the lung tissue for/in vitro/experimentation was granted by the Human Ethics Committee of the University of Sydney, and the Sydney South West Area Health Service, and informed consent was received from all subjects. Asthmatic ASM cells were isolated from airway biopsies, and all but one of the non asthmatic derived ASM cells were isolated from either resected lung tissue, or lung transplantation (both donor and recipient) This isolation and culture of ASM cells was carried out according to a method described by Johnson et al. 1995. Briefly, with the use of a dissecting microscope, sterile equipment and aseptic technique, bronchial airways were dissected from the surrounding parenchyma and cut longitudinally. The bronchi were then briefly dipped in 70% (v/v) ethanol in water to kill any surface organisms. The bronchi were then washed in sterile Hanks balanced salt solution three times and pinned down in a sterile Petri dish with the epithelial surface facing upwards. […] Proliferation was assessed using an MTT assay (SIGMA-aldrich, Missouri, USA) at day 3, 7 and 9. […] The specific absorption of each well was measured at 690 nm (reference) and 570 nm.
Compound,inhibition of proliferation of primary lung endothelial cells [1],inhibition of FBS-induced proliferation of asthmatic smooth muscle cells [2]
CSCC[C@H](NC(=O)[C@@H](NC(=O)[C@@H](NC(=O)[C@H](Cc1ccccc1)NC(=O)[C@H](CCCNC(=N)N)NC(=O)[C@H](CCC(N)=O)NC(=O)[C@@H](N)CC(C)C)[C@@H](C)O)[C@@H](C)O)C(=O)N1CCC[C@H]1C(=O)N[C@@H](Cc1ccccc1)C(=O)N[C@@H](CC(C)C)C(=O)N[C@@H](Cc1ccccc1)C(=O)N[C@@H](CS)C(=O)N[C@@H](CC(N)=O)C(=O)N[C@H](C(=O)N[C@@H](CC(N)=O)C(=O)N[C@@H](CC(=O)O)C(=O)N[C@H](C(=O)N[C@@H](CS)C(=O)N[C@@H](CC(N)=O)C(=O)N[C@@H](Cc1ccccc1)C(=O)O)C(C)C)C(C)C [T3] (H-LQRFTTMPFLFCNVNDVCNF-OH; N-terminus and C-terminus assumed),able to inhibit the proliferation; also recorded: significantly inhibited by the presence of T3 peptide at all timepoints,Neither T3 nor T7 peptides were shown to be able to inhibit; also recorded: not inhibited
CSCC[C@H](NC(=O)[C@@H](N)[C@@H](C)O)C(=O)N1CCC[C@H]1C(=O)N[C@@H](Cc1ccccc1)C(=O)N[C@@H](CC(C)C)C(=O)N[C@@H](Cc1ccccc1)C(=O)N[C@@H](CS)C(=O)N[C@@H](CC(N)=O)C(=O)N[C@H](C(=O)N[C@@H](CC(N)=O)C(=O)N[C@@H](CC(=O)O)C(=O)N[C@H](C(=O)N[C@@H](CS)C(=O)N[C@@H](CC(N)=O)C(=O)N[C@@H](Cc1ccccc1)C(=O)N[C@@H](C)C(=O)N[C@@H](CO)C(=O)N[C@@H](CCCNC(=N)N)C(=O)N[C@@H](CC(N)=O)C(=O)N[C@@H](CC(=O)O)C(=O)N[C@@H](Cc1ccc(O)cc1)C(=O)N[C@@H](CO)C(=O)N[C@@H](Cc1ccc(O)cc1)C(=O)N[C@@H](Cc1c[nH]c2ccccc12)C(=O)N[C@@H](CC(C)C)C(=O)O)C(C)C)C(C)C [T7] (H-TMPFLFCNVNDVCNFASRNDYSYWL-OH; N-terminus and C-terminus assumed),able to inhibit the proliferation; also recorded: inhibited proliferation at both day 7 and day 9,Neither T3 nor T7 peptides were shown to be able to inhibit; also recorded: not inhibited
